Blank lines part the entries; values can stand above or below the compound they belong to.
Test system: 855422-203-R-J1-PDC complex spheroid growth
Test: Anticancer human tumor 855422-203-R-J1-PDC patient-derived bladder carcinoma cell line growth inhibition [AhR]
Conditions: for IC50: curve of first compound; for viability, T/C: stronger effect = lower value
In short: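 Agents were dosed in half-log steps down from roughly clinical Cmax, or from 10 microM where Cmax was unknown, alone and with AhR antagonists. Read-out: percent test/control growth of tumor spheroids containing HUVEC and MSC stromal cells.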

[1] = second compound 0.1 µM, first compound 0.0316 µM
[2] = second compound 0.1 µM, first compound 0.1 µM
[3] = second compound 0.1 µM, first compound 0.316 µM
[4] = second compound 0.1 µM, first compound 1 µM
[5] = second compound 0.1 µM, first compound 3.16 µM
[6] = second compound 0.1 µM, first compound 10 µM
[7] = second compound 0.316 µM, first compound 0.0316 µM
[8] = second compound 0.316 µM, first compound 0.1 µM
[9] = second compound 0.316 µM, first compound 0.316 µM
[10] = second compound 0.316 µM, first compound 1 µM
[11] = second compound 0.316 µM, first compound 3.16 µM
[12] = second compound 0.316 µM, first compound 10 µM
[13] = second compound 1 µM, first compound 0.0316 µM
[14] = second compound 1 µM, first compound 0.1 µM
[15] = second compound 1 µM, first compound 0.316 µM
[16] = second compound 1 µM, first compound 1 µM
[17] = second compound 1 µM, first compound 3.16 µM
[18] = second compound 1 µM, first compound 10 µM
[19] = second compound 3.16 µM, first compound 0.0316 µM
[20] = second compound 3.16 µM, first compound 0.1 µM
[21] = second compound 3.16 µM, first compound 0.316 µM
[22] = second compound 3.16 µM, first compound 1 µM
[23] = second compound 3.16 µM, first compound 3.16 µM
[24] = second compound 3.16 µM, first compound 10 µM
[25] = second compound 10 µM, first compound 0.0316 µM
[26] = second compound 10 µM, first compound 0.1 µM
[27] = second compound 10 µM, first compound 0.316 µM
[28] = second compound 10 µM, first compound 1 µM
[29] = second compound 10 µM, first compound 3.16 µM
[30] = second compound 10 µM, first compound 10 µM
[31] = second compound 0.1 µM, first compound 0.00949 µM
[32] = second compound 0.1 µM, first compound 0.03 µM
[33] = second compound 0.1 µM, first compound 0.0949 µM
[34] = second compound 0.1 µM, first compound 0.3 µM
[35] = second compound 0.1 µM, first compound 0.949 µM
[36] = second compound 0.1 µM, first compound 3 µM
[37] = second compound 0.316 µM, first compound 0.00949 µM
[38] = second compound 0.316 µM, first compound 0.03 µM
[39] = second compound 0.316 µM, first compound 0.0949 µM
[40] = second compound 0.316 µM, first compound 0.3 µM
[41] = second compound 0.316 µM, first compound 0.949 µM
[42] = second compound 0.316 µM, first compound 3 µM
[43] = second compound 1 µM, first compound 0.00949 µM
[44] = second compound 1 µM, first compound 0.03 µM
[45] = second compound 1 µM, first compound 0.0949 µM
[46] = second compound 1 µM, first compound 0.3 µM
[47] = second compound 1 µM, first compound 0.949 µM
[48] = second compound 1 µM, first compound 3 µM
[49] = second compound 3.16 µM, first compound 0.00949 µM
[50] = second compound 3.16 µM, first compound 0.03 µM
[51] = second compound 3.16 µM, first compound 0.0949 µM
[52] = second compound 3.16 µM, first compound 0.3 µM
[53] = second compound 3.16 µM, first compound 0.949 µM
[54] = second compound 3.16 µM, first compound 3 µM
[55] = second compound 10 µM, first compound 0.00949 µM
[56] = second compound 10 µM, first compound 0.03 µM
[57] = second compound 10 µM, first compound 0.0949 µM
[58] = second compound 10 µM, first compound 0.3 µM
[59] = second compound 10 µM, first compound 0.949 µM
[60] = second compound 10 µM, first compound 3 µM
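Further: spheroids exposed to agents for seven days before readout.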
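Wherever viability, T/C is given: percent of DMSO vehicle control luminescence viability.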

SMILES: CC1COCCN1c1cc(C2(S(C)(=N)=O)CC2)nc(-c2ccnc3[nH]ccc23)n1 (stereo not given) + Cc1cncc(-c2nc(NCCc3c[nH]c4ccccc34)c3ncn(C(C)C)c3n2)c1
IC50 (second compound 0.1 µM): 6690 nM | IC50 (second compound 0.316 µM): 6720 nM | IC50 (second compound 1 µM): 6270 nM | IC50 (second compound 3.16 µM): 1650 nM | IC50 (second compound 10 µM): < 31.6 nM | viability, T/C [1]: 96.7% | viability, T/C [2]: 88.9% | viability, T/C [3]: 83.1% | viability, T/C [4]: 98.6% | viability, T/C [5]: 114% | viability, T/C [6]: 25.1% | viability, T/C [7]: 84.1% | viability, T/C [8]: 81.6% | viability, T/C [9]: 79.7% | viability, T/C [10]: 98.3% | viability, T/C [11]: 110% | viability, T/C [12]: 28.4% | viability, T/C [13]: 80.4% | viability, T/C [14]: 81.8% | viability, T/C [15]: 66.9% | viability, T/C [16]: 79.1% | viability, T/C [17]: 92% | viability, T/C [18]: 29.5% | viability, T/C [19]: 69% | viability, T/C [20]: 70.7% | viability, T/C [21]: 74.2% | viability, T/C [22]: 48.4% | viability, T/C [23]: 44.6% | viability, T/C [24]: 17.9% | viability, T/C [25]: 23.8% | viability, T/C [26]: 27.1% | viability, T/C [27]: 12.5% | viability, T/C [28]: 9.69% | viability, T/C [29]: 8.26% | viability, T/C [30]: 5.32%

SMILES: CCN(c1cc(-c2ccc(CN3CCOCC3)cc2)cc(C(=O)NCc2c(C)cc(C)[nH]c2=O)c1C)C1CCOCC1 + Cc1cncc(-c2nc(NCCc3c[nH]c4ccccc34)c3ncn(C(C)C)c3n2)c1
IC50 (second compound 0.1 µM): > 3000 nM | IC50 (second compound 0.316 µM): > 3000 nM | IC50 (second compound 1 µM): > 3000 nM | IC50 (second compound 3.16 µM): > 3000 nM | IC50 (second compound 10 µM): < 9.49 nM | viability, T/C [31]: 90.5% | viability, T/C [32]: 84.7% | viability, T/C [33]: 92% | viability, T/C [34]: 83.1% | viability, T/C [35]: 85.3% | viability, T/C [36]: 70.7% | viability, T/C [37]: 88.9% | viability, T/C [38]: 78.3% | viability, T/C [39]: 86.6% | viability, T/C [40]: 74.2% | viability, T/C [41]: 76.2% | viability, T/C [42]: 75.7% | viability, T/C [43]: 89.4% | viability, T/C [44]: 85.7% | viability, T/C [45]: 74.8% | viability, T/C [46]: 75% | viability, T/C [47]: 76.1% | viability, T/C [48]: 73.7% | viability, T/C [49]: 74.8% | viability, T/C [50]: 85.5% | viability, T/C [51]: 64.1% | viability, T/C [52]: 51.7% | viability, T/C [53]: 69% | viability, T/C [54]: 66.3% | viability, T/C [55]: 24.9% | viability, T/C [56]: 32.4% | viability, T/C [57]: 15.5% | viability, T/C [58]: 1.7% | viability, T/C [59]: 4.26% | viability, T/C [60]: 0.96%

SMILES: Nc1ncn(C2CC(O)C(CO)S2)c(=O)n1 (stereo not given) + Cc1cncc(-c2nc(NCCc3c[nH]c4ccccc34)c3ncn(C(C)C)c3n2)c1
IC50 (second compound 0.1 µM): > 300 nM | IC50 (second compound 0.316 µM): > 300 nM | IC50 (second compound 1 µM): > 300 nM | IC50 (second compound 3.16 µM): 1.28 nM | IC50 (second compound 10 µM): < 0.949 nM | viability, T/C (second compound 0.1 µM, first compound 0.000949 µM): 92.3% | viability, T/C (second compound 0.1 µM, first compound 0.003 µM): 101% | viability, T/C [31]: 92.9% | viability, T/C [32]: 90.4% | viability, T/C [33]: 84.7% | viability, T/C [34]: 72.2% | viability, T/C (second compound 0.316 µM, first compound 0.000949 µM): 90.1% | viability, T/C (second compound 0.316 µM, first compound 0.003 µM): 83.8% | viability, T/C [37]: 77.4% | viability, T/C [38]: 85% | viability, T/C [39]: 78.2% | viability, T/C [40]: 69.8% | viability, T/C (second compound 1 µM, first compound 0.000949 µM): 74.1% | viability, T/C (second compound 1 µM, first compound 0.003 µM): 88.2% | viability, T/C [43]: 77.3% | viability, T/C [44]: 73.6% | viability, T/C [45]: 79.1% | viability, T/C [46]: 77.1% | viability, T/C (second compound 3.16 µM, first compound 0.000949 µM): 49.1% | viability, T/C (second compound 3.16 µM, first compound 0.003 µM): 51.8% | viability, T/C [49]: 41.9% | viability, T/C [50]: 25.1% | viability, T/C [51]: 42% | viability, T/C [52]: 37.5% | viability, T/C (second compound 10 µM, first compound 0.000949 µM): 28.3% | viability, T/C (second compound 10 µM, first compound 0.003 µM): 26.9% | viability, T/C [55]: 19.7% | viability, T/C [56]: 15.5% | viability, T/C [57]: 22.8% | viability, T/C [58]: 24.3%

Continued by falling IC50 (second compound 0.1 µM), values first:

IC50 (second compound 0.1 µM): 6140 nM | IC50 (second compound 0.316 µM): 5810 nM | IC50 (second compound 1 µM): 5450 nM | IC50 (second compound 3.16 µM): 4530 nM | IC50 (second compound 10 µM): < 31.6 nM
SMILES: CC1(C)CCC(CN2CCN(c3ccc(C(=O)NS(=O)(=O)c4ccc(NCC5CCOCC5)c([N+](=O)[O-])c4)c(Oc4cnc5[nH]ccc5c4)c3)CC2)=C(c2ccc(Cl)cc2)C1 + Cc1cncc(-c2nc(NCCc3c[nH]c4ccccc34)c3ncn(C(C)C)c3n2)c1
viability, T/C [1]: 93.9% | viability, T/C [2]: 92.2% | viability, T/C [3]: 98.1% | viability, T/C [4]: 117% | viability, T/C [5]: 108% | viability, T/C [6]: 11.9% | viability, T/C [7]: 94.2% | viability, T/C [8]: 91.1% | viability, T/C [9]: 85.8% | viability, T/C [10]: 90.3% | viability, T/C [11]: 98.2% | viability, T/C [12]: 12.6% | viability, T/C [13]: 83% | viability, T/C [14]: 96.7% | viability, T/C [15]: 83.7% | viability, T/C [16]: 76.7% | viability, T/C [17]: 84.8% | viability, T/C [18]: 11.3% | viability, T/C [19]: 76.2% | viability, T/C [20]: 80.7% | viability, T/C [21]: 77.7% | viability, T/C [22]: 60.8% | viability, T/C [23]: 69.5% | viability, T/C [24]: 13.8% | viability, T/C [25]: 38% | viability, T/C [26]: 30.6% | viability, T/C [27]: 22.1% | viability, T/C [28]: 14.7% | viability, T/C [29]: 24.5% | viability, T/C [30]: 10.5%

IC50 (second compound 0.1 µM): 263 nM | IC50 (second compound 0.316 µM): 247 nM | IC50 (second compound 1 µM): 244 nM | IC50 (second compound 3.16 µM): 201 nM | IC50 (second compound 10 µM): < 9.49 nM
SMILES: O=C(C=Cn1cnc(-c2cc(C(F)(F)F)cc(C(F)(F)F)c2)n1)NNc1cnccn1 + Cc1cncc(-c2nc(NCCc3c[nH]c4ccccc34)c3ncn(C(C)C)c3n2)c1
viability, T/C [31]: 101% | viability, T/C [32]: 102% | viability, T/C [33]: 162% | viability, T/C [34]: 40.8% | viability, T/C [35]: 30.8% | viability, T/C [36]: 22.6% | viability, T/C [37]: 108% | viability, T/C [38]: 116% | viability, T/C [39]: 128% | viability, T/C [40]: 36.3% | viability, T/C [41]: 26.3% | viability, T/C [42]: 23.3% | viability, T/C [43]: 95.3% | viability, T/C [44]: 114% | viability, T/C [45]: 118% | viability, T/C [46]: 37.1% | viability, T/C [47]: 30.3% | viability, T/C [48]: 25.3% | viability, T/C [49]: 83.8% | viability, T/C [50]: 95.4% | viability, T/C [51]: 106% | viability, T/C [52]: 22.2% | viability, T/C [53]: 32.2% | viability, T/C [54]: 23.9% | viability, T/C [55]: 11.4% | viability, T/C [56]: 7.81% | viability, T/C [57]: 6.35% | viability, T/C [58]: 7.34% | viability, T/C [59]: 7.72% | viability, T/C [60]: 8.99%

Source: PubChem BioAssay AID1919005 (Molecular Pharmacology Branch, DTP, NCI, 2023)
